{
  "source": "patent US20040106793A1",
  "about": "“Oxazoles for treating cytokine mediated diseases” (SmithKline Beecham Corporation, priority 1993, published 2004)",
  "data": [
    {"system": "IL-1 produced by human monocytes", "assay": "Interleukin 1 (IL-1) production by LPS-stimulated human monocytes", "type": "cell-based", "conditions": "human peripheral blood monocytes, compound 1 h before lipopolysaccharide (50 ng/ml), 24 h at 37° C.; IL-1 in supernatant by bioassay (EL-4) or ELISA", "procedure": "Human peripheral blood monocytes were isolated and purified from either fresh blood preparations from volunteer donors, or from blood bank buffy coats, according to the procedure of Colotta et al, J Immunol, 132, 936 (1984). These monocytes (1×10^6) were plated in 24-well plates at a concentration of 1-2 million/ml per well. The cells were allowed to adhere for 2 hours, after which time non-adherent cells were removed by gentle washing. Test compounds were then added to the cells for 1 h before the addition of lipopolysaccharide (50 ng/ml), and the cultures were incubated at 37° C. for an additional 24 h. At the end of this period, culture supernatants were removed and clarified of cells and all debris. Culture supernatants were then immediately assayed for IL-1 biological activity, either by the method of Simon et al., J. Immunol. Methods, 84, 85, (1985) (based on ability of IL-1 to stimulate a Interleukin 2 producing cell line (EL-4) to secrete IL-2, in concert with A23187 ionophore) or the method of Lee et al., J. ImmunoTherapy, 6 (1), 1-12 (1990) (ELISA assay).", "values": [
      {"smiles": "COc1cccc(-c2oc(C)nc2-c2ccncc2)c1", "note": "[Example 1, 5-(3-Methoxyphenyl)-2-methyl-4-(4-pyridyl)oxazole]", "inhibition of in vitro IL-1 produced by human monocytes": "inhibitors"},
      {"smiles": "Cc1nc(-c2ccncc2)c(-c2ccc(F)cc2)o1", "note": "[Example 2, 5-(4-Fluorophenyl)-2-methyl-4-(4-pyridyl)oxazole]", "inhibition of in vitro IL-1 produced by human monocytes": "inhibitors"},
      {"smiles": "Fc1ccc(-c2ncoc2-c2ccncc2)cc1", "note": "[Example 7, 4-(4-Fluorophenyl)-5-(4-pyridyl)oxazole]", "inhibition of in vitro IL-1 produced by human monocytes": "inhibitors"}
    ]}
  ]
}
